Results as given in patent publication US20080063601A1, “Compositions and methods relating to polycystic kidney disease” (priority 2004, published 2008).
Read-outs that look alike come from different tables or passages of the source.

Tests used:
HeLa cells [1] = assay: HeLa cell viability by trypan blue dye exclusion; assay type: cell-based
Description: Since extracellular calcium concentration can influence triptolide binding Applicant sought to determine if the presence of calcium influences the rate of triptolide-mediated apoptosis. To first establish the growth rate of HeLa in media±calcium, cell counts were performed over a 72 hour time course. Although calcium-free media caused cells to detach more easily, the overall growth rates were similar where cell doubling occurred every 24 hours on average (FIG. 5B). For triptolide experiments, cells were initially equilibrated in medium±calcium for 16 hours before the addition of 100 nM triptolide. Cell death was assessed by trypan blue dye exclusion at 24, 48, and 72 hours post drug treatment. In the presence of calcium-containing medium, triptolide induced at least 50% cell death by 24 hours with this trend continuing through later time points (FIG. 5C).
Applicant's results have implicated reversible binding of triptolide to a potential binding protein or complex that can be regulated by calcium. To understand if triptolide function is further separable between cell death and NFκB inhibition, Applicant examined the effect of concentration on these two endpoints. HeLa cells were cultured in the presence of 0, 10, 25, 50, or 100 nM of triptolide and separately assessed for cell death or the ability to suppress NFκB transactivation promoted by TNF-α. Following 24-48 hours of culture, viable cells were recovered and counted. Following 24 hours, triptolide concentrations from 25-100 nM caused greater than 50% of the cells to undergo cell death as assessed by detachment, clumping and the failure to exclude trypan blue dye. […] This is consistent with previous studies showing that low doses of triptolide cause cell cycle arrest rather than apoptosis (Kiviharju, et al., 2002, Clin Cancer Res 8, 2666-2674).
Based upon Applicant's studies examining the concentration dependent effect of triptolide on the two measured biological endpoints, cell death and transcriptional repression, Applicant wanted to determine how modulating triptolide's structure may also discriminate between the two pathways. For cell viability assays, HeLa cells were incubated with 0, 0.1, 1, or 10 μM of each analog or triptolide for 24 hours and then counted using trypan blue dye exclusion. […] NFκB transcriptional inhibition was measured using the κB-luciferase assay as previously described following 5 hours of incubation with each analog (0-10 μM) and TNF-α addition.
HeLa cells were incubated in DMEM or SMEM (Gibco) media+10% FBS and maintained at 37° C. in 5% CO2 for all experiments. HeLa cell viability was assessed by trypan blue dye exclusion, as well as by morphological examination (non-viable cells were rounded and detached from culture plate).

NFκB transactivation = assay: κB-luciferase reporter assay of TNF-α induced NFκB transactivation in HeLa cells; assay type: cell-based; settings: for inhibition at 0.1 µM: Homo sapiens
Description: Having established that triptolide induced cell death is dependent upon free calcium concentration, Applicant next determined whether this was also a requirement for the inhibition of NFκB transcription. HeLa cells were transiently transfected with the κB-luciferase reporter construct for 8 hours before being washed and then cultured in the presence or absence of calcium containing medium for 16 hours. Triptolide (100 nM) was pre-incubated with cells for 1 hour before addition of 15 ng/ml of TNF-α for 4 hours.
As an additional experiment, transcriptional activity was also assessed by site-directed calcium buffering. HeLa cells were co-transfected with the κB-luciferase plasmid as well as one of the following constructs: GFP empty vector, NES-PV-GFP, or NLS-PV-GFP and proper GFP localization was confirmed. […]
NFκB transactivation was examined using the κB-luciferase reporter construct. […] Cells were assessed for NFκB driven luciferase expression after an additional five hours of incubation, at which time TNF-α had induced transcriptional activity by approximately 15-fold in control cells. […] The results thus far support a divergence of triptolide-mediated functions: the pathway regulating growth arrest/death is more sensitive to triptolide and calcium than the mechanism leading to transcriptional repression of NFκB.
A triple κB promoter-Luciferase reporter construct was a gift of Sankar Ghosh (Yale University). […] The transfection efficiency of HeLa was determined to be 80-90%, and all samples were normalized to protein concentration. Luciferase assays were performed using the Firefly luciferase kit as per manufacturer's protocol (Promega) and results obtained on the Wallac Victor2 1420 Multilabel Counter (Perkin Elmer).

HeLa cells [2] = assay: [3H]-triptolide saturation (specific) binding in HeLa cells; settings: 0-100 nM [3H]-triptolide 1 h, non-specific binding with 2 μM cold triptolide, read-out: [3H]-triptolide binding affinity (KD), specific binding
Description: Based upon the data above, Applicant next sought to determine if triptolide binding was saturable and if more than one protein (or binding site) was being targeted. Determination of the [^3H]-triptolide binding affinity (KD) and the binding capacity per cell (Bmax) were calculated using a saturation plot. HeLa cells were cultured to 90% confluency and subsequently treated with 0-100 nM of [^3H]-triptolide for one hour. Non-specific binding was defined using 2 μM cold triptolide as competitor. Bmax was calculated to be 99±19 fmol triptolide bound/[…] of triptolide binding sites.
Saturation binding assays were accomplished in HeLa cells adhered on 6-well plates in DMEM+10% FBS. All samples were at least 90% confluent at time of addition of triptolide. Non-specific binding of [^3H]-triptolide was assessed by the pre-incubation of 2 μM (non-labeled) triptolide for one hour. Following cold competition (or DMSO) 5, 10, 20, 50, or 100 nM of [^3H]-triptolide was added into the cultures for an additional one hour, and then cells were lysed and counted for binding activity.

[3] = Dose finding / toxicity in pregnant C57B1/6 mice; assay type: in vivo
Description: Triptolide has been previously studied in rodent models of tumor regression (Tengchaisri, et al., 1998, Cancer Lett 133, 169-175; Yang, et al., 2003, Mol Cancer Ther 2, 65-72), but it had not yet been tested in a system utilizing pregnant females. To first establish a potential therapeutic versus lethal concentration of drug delivery, pregnant C57B1/6 mice were treated with incremental concentrations of triptolide between 0.01-0.15 mg/kg/day i.p. injections. Toxicity was assessed as determined by resorption of all embryos or the preponderance of a large percentage of stillborns. With reference to these criteria, triptolide toxicity was determined to be most prominent at concentrations of 0.1 mg/kg/day or greater. […] Another experimental parameter involved the timing of the start of triptolide injections, since polycystin-2 has been implicated in left-right axis formation in the developing embryo at approximately E7.75 (McGrath, et al., 2003, Cell 114, 61-73; Pennekamp, et al., 2002, Curr Biol 12, 938-943). Applicants therefore chose E10.5 as the start of triptolide injections, in order to allow for a normal polycystin-2 mediated patterning event and still leave sufficient time to act on cyst formation during kidney organogenesis.

Q: Which “minimal incubation time required for commitment to apoptosis” value (HeLa cells [1]) does the source give for CC(C)[C@]12O[C@H]1[C@@H]1O[C@]13[C@]1(O[C@H]1C[C@H]1C4=C(CC[C@@]13C)C(=O)OC4)[C@@H]2O [triptolide] here?
A: Its value is “three to four hours”.

Q: What about the “effect on cell proliferation and cell death” value (HeLa cells [1]; 10 nM, 48 hours) of the same compound?
A: The value was “inhibited cell proliferation but did not induce cell death”.

Q: And the cell death (HeLa cells [1]; 0.1 μM, 24 hours)?
A: Its cell death is 60%.

Q: And the cell death (HeLa cells [1]; 0.1 μM, 24 hours, listed as Triptolide)?
A: The cell death was “greater than 50%”.

Q: What about the cells died (HeLa cells [1]; 100 nM, calcium free media, 72 hours) of the same compound?
A: The cells died was 35%.

Q: What about the cell death (HeLa cells [1]; 100 nM, calcium-containing medium, by 24 hours) of the same compound?
A: The cell death was “at least 50%”.

Q: And the “cells undergoing cell death” value (HeLa cells [1]; 25-100 nM, 24 hours)?
A: The value was “greater than 50%”.

Q: What about the cells died (HeLa cells [1]; 25-100 nM, 48 hours) of the same compound?
A: Its cells died is “nearly all cells”.

Q: What about the “inhibition of TNF-α driven transcriptional activity of NFκB” value (NFκB transactivation; 10 nM, 1 h pre-treatment + 5 h TNF-α) of the same compound?
A: Its value is “did not inhibit”.

Q: And the “luciferase induction remaining with compound + TNF-α” value (NFκB transactivation; 10 nM, after 24 hours)?
A: The value was greater than 20 fold.

Q: And the “inhibition of TNF-α driven transcriptional activity of NFκB” value (NFκB transactivation; 25 nM, 1 h pre-treatment + 5 h TNF-α)?
A: Its value is “did not inhibit”.

Q: And the “suppression of TNF-α driven NFκB activity” value (NFκB transactivation; 50 nM, 1 h pre-treatment + 5 h TNF-α)?
A: Its value is 20%.

Q: And the “suppression of NFκB transactivation with site-directed calcium buffering” value (NFκB transactivation; 100 nM, GFP vector, NES-PV-GFP or NLS-PV-GFP)?
A: Its value is “retained the ability to suppress NFκB transactivation”.

Q: What about the “inhibition of TNF-α induced NFκB transactivation” value (NFκB transactivation; 100 nM, presence and absence of calcium) of the same compound?
A: The value was “effectively inhibited”.

Q: What about the “NFκB activity at higher concentration” value (NFκB transactivation; 1 or 10 μM, 5 hours with TNF-α) of the same compound?
A: The value was “attenuated further”.

Q: What about the inhibition at 0.1 µM (NFκB transactivation; 0.1 μM, 5 hours with TNF-α, read-out: NFκB inhibition) of the same compound?
A: Its inhibition at 0.1 µM is greater than 60%.

Q: What about the inhibition at 0.1 µM (NFκB transactivation; 100 nM, 1 h pre-treatment + 5 h TNF-α, read-out: inhibition of TNF-α driven NFκB activity (average)) of the same compound?
A: The inhibition at 0.1 µM was 60%.

Q: What about the Kd (HeLa cells [2]) of the same compound?
A: The Kd was 0.0155 ± 0.0008 µM.

Q: What about the adverse effects ([3]; 0.07 mg/kg/day i.p.) of the same compound?
A: The adverse effects was “no discernable adverse effects”.

Q: What about the MTD ([3]; female, mouse, in vivo, ip, read-out: maximum tolerated dose) of the same compound?
A: The MTD was 0.07 mg/kg/day.

Q: What about the “dose at which toxicity (resorption of all embryos or large percentage of stillborns) was most prominent” value ([3]; i.p., 0.01-0.15 mg/kg/day tested) of the same compound?
A: The value was no less than 0.1 mg/kg/day.
